Measurements taken from PubChem BioAssay (NCI).
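These data come from cells grown in 96-well plates and exposed to compound for 48 hours at five concentrations. Abbreviation: GI50, concentration required for 50% inhibition of growth. At the TGI there is no net growth.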

How the values were obtained:
Assay in all cases: DTP human tumour cell line panel, 48 h
[1] = test system: 786-0 renal
[2] = test system: EKVX NSCLC
[3] = test system: HCC-2998 colon
[4] = test system: KM12 colon
[5] = test system: LOX IMVI melanoma
[6] = test system: NCI/ADR-RES ovarian
[7] = test system: OVCAR-5 ovarian
[8] = test system: RXF 393 renal
[9] = test system: SNB-75 CNS
[10] = test system: T-47D breast

SMILES | GI50 [1] [µM] | TGI [1] [µM] | GI50 [2] [µM] | TGI [2] [µM] | GI50 [3] [µM] | TGI [3] [µM] | GI50 [4] [µM] | TGI [4] [µM] | GI50 [5] [µM] | TGI [5] [µM] | GI50 [6] [µM] | TGI [6] [µM] | GI50 [7] [µM] | TGI [7] [µM] | GI50 [8] [µM] | TGI [8] [µM] | GI50 [9] [µM] | TGI [9] [µM] | GI50 [10] [µM] | TGI [10] [µM]
COc1ccc2[nH]c(O)c(/C=c3/ccc4c(c3)N=C(c3ccc(F)cc3)N=4)c2c1 | 1.69 | 3.26 | 14 | > 100 | > 100 | > 100 | 4.54 | 77.9 | 2.92 | > 100 | 3.78 | 24.4 | 7.1 | 97.9 | 1.95 | 4.06 | 1.55 | 3.6 | 2.01 | 4.99
Cn1c2ccccc2c2nnc(NNCc3ccccn3)nc21 | 0.327 | 4.51 | 0.406 | 15.2 | 0.321 | 12.7 | 0.478 | 14.2 | 0.349 | 4.51 | 0.276 | 3.22 | 1.01 | 15.3 | 0.407 | 3.36 | 1.16 | 14.1 | 0.369 | 8.98
Cc1cc(S(N)(=O)=O)c(S/C(=N\Nc2ccc([N+](=O)[O-])cc2)c2ccc3ccccc3c2)cc1Cl | 18.7 | 42.9 | 17.9 | 64.3 | 14.7 | 30.1 | 25.2 | 99 | 20.3 | 40.9 | 13.9 | 41.9 | 14.8 | 27.9 | 8.69 | 54.8 | 56.7 | > 100 | – | 83.7
COc1ccc2nccc(/C=C/c3ccnc4ccc(OC)cc34)c2c1 | > 100 | > 100 | > 61.2 | > 100 | > 100 | > 100 | > 73.1 | > 100 | 69.3 | > 100 | > 100 | > 100 | > 82.2 | > 100 | > 73.4 | > 100 | 27.3 | > 80.2 | 43.8 | > 87.3
Cc1ncc(-c2ccnc(Nc3ccc(S(C)(=O)=O)cc3)n2)n1C(C)C | 0.922 | > 10 | 1.56 | 5.54 | 1.35 | 5.59 | 0.527 | 2.33 | 0.537 | 9.94 | 2.46 | > 10 | 1.09 | > 8.88 | 0.211 | 0.678 | 0.377 | 2.58 | 1.38 | > 8.75
Oc1ccccc1C=Nc1ccccc1N=Cc1ccccc1O.[Cu+2] | 10.8 | 24.7 | 8.62 | 23.6 | 7.95 | 20.9 | 3.5 | 15 | 2.85 | 13.3 | 2.25 | 8.38 | 14.8 | 36 | 13.2 | 26.6 | 5.15 | 19.3 | 1.68 | 5.4
COC(=O)[C@@H](OC)[C@@H]1Cc2cc3cc(OC4CC(OC5CC(O)C(O)C(C)O5)C(O)C(C)O4)c(C)c(O)c3c(O)c2C(=O)[C@H]1OC1CC(OC2CC(OC3CC(C)(O)C(O)C(C)O3)C(O)C(C)O2)C(O)C(C)O1 (some centres not stated) | 0.0302 | > 16.5 | 0.0457 | 1.22 | 0.0365 | 0.252 | 0.0404 | 3.72 | 0.026 | > 5.38 | 0.688 | > 16.5 | 0.0524 | > 16.5 | 0.0263 | 0.0623 | 0.0212 | 0.0487 | 0.0421 | > 16.5
CNC(=O)c1cc2c(Oc3ccc(NC(=S)NC(=O)Cc4ccccc4)cc3F)ccnc2cc1OC | 5.75 | > 100 | > 100 | > 100 | > 100 | > 100 | 3.91 | > 100 | 4.13 | > 100 | 7.01 | > 100 | > 36.1 | > 100 | 2.02 | 6.55 | 0.183 | 4.68 | 2.8 | > 100
CN1CCN(c2ccc(C(=O)Nc3cccc(C#Cc4cccc5[nH]nc(N)c45)c3)cc2C(F)(F)F)CC1 | 2.05 | 5.04 | 1.6 | 5.63 | 0.658 | 1.31 | 0.808 | 1.95 | 0.59 | 1.08 | 0.99 | 2.82 | 0.959 | 3.27 | 0.799 | 2.31 | 0.624 | 1.62 | 1.24 | 5.55
O=c1cc(O)c2c(O)cc(O)cc2o1 | – | > 100 | – | > 100 | – | > 100 | – | – | – | > 100 | – | > 100 | – | > 100 | – | > 100 | – | > 100 | – | > 100
CN(C)c1ccc(/C=N/NC(=O)c2cccc3ccccc23)c(Cl)c1 | 5.87 | > 100 | 3.51 | > 100 | 38.5 | > 100 | 1.01 | > 100 | 1.86 | > 100 | 1.02 | > 100 | 24.1 | > 100 | 1.31 | 10.8 | 1.57 | 16.3 | 2.95 | > 100
NC(CO)C(=O)NCC(=O)O (configuration not stated) | – | > 100 | – | > 100 | – | > 100 | – | > 100 | – | > 100 | – | > 100 | – | > 100 | – | > 100 | – | > 100 | – | > 100
CCN1C(=O)N(CC)C2C1NN=c1s/c(=C\c3cccc([N+](=O)[O-])c3)c(=O)n12 (configuration not stated) | 0.143 | > 100 | 0.382 | > 100 | 0.229 | > 100 | 0.0404 | > 100 | 0.0568 | > 100 | 0.0443 | 0.703 | 0.324 | > 100 | 0.0708 | > 100 | 0.0378 | > 100 | – | > 100
